The values below come from ChEMBL document CHEMBL5230136, “A review: Biologically active 3,4-heterocycle-fused coumarins” (Eur J Med Chem, 2021).

Experiment [1] addresses D(4) dopamine receptor (Homo sapiens, UniProt P21917). As to the kind of experiment: Binding affinity to D4 receptor (unknown origin) assessed as inhibition constant.
In experiment [2] the target is Dopamine receptors; D2 & D4 (Homo sapiens, UniProt P14416+P21917). As to the kind of experiment: Binding affinity to human D2/D4 receptor assessed as inhibition constant. In kind it is protein assay.
The test system of experiment [3] is MCF7. Description: Cytotoxicity activity against human MCF7 cells assessed as decreased cell viability. In kind it is functional, cell-based.
The test system of experiment [4] is MCF7. As to the kind of experiment: Cytotoxicity against human MCF7 cells […] by MTT reduction assay. In kind it is functional, cell-based. (Tetrazolium assays rely on reduction of a dye to a coloured formazan, in cell work by metabolically active cells.)
The test system of experiment [5] is A549. Description: Anticancer activity against human A549 cells assessed as reduction in cell viability. In kind it is functional, cell-based.
The test system of experiment [6] is HeLa. As to the kind of experiment: cells. The note with it: Homo sapiens.
Description: Cytotoxicity against human HeLa cells at 50 uM by MTT reduction assay
For experiment [7], the system named is LS180. Description: cells. Conditions: Homo sapiens.
Description: Cytotoxicity against human LS180 cells at 50 uM by MTT reduction assay
Experiment [8] deals with K562. Description: cells. The note with it: Homo sapiens.
Description: Cytotoxicity against human K562 cells at 50 uM by MTT reduction assay
For experiment [9], the system named is A549. As to the kind of experiment: Anticancer activity against human A549 cells assessed as inhibition of cell proliferation measured after 48 hrs by MTT assay. Conditions: A549, 48 h. It is filed as functional, cell-based.
Experiment [10] concerns RAW264.7. Description: Anti-inflammatory activity against mouse RAW264.7 cells assessed as inhibition of LPS-induced NO production at 50 ug/ml relative to control. It is filed as functional. The arrangement: scale not given: the % may be the effect or the level left. The note with it: dose 50 µg/ml.
For experiment [11], the system named is Mus musculus. Description: Antiinflammatory activity in Swiss albino mouse model of carrageenan-induced paw edema assessed as reduction in paw edema. It is filed as functional. The arrangement: scale not given: the % may be the effect or the level left. Background: Carrageenan injected into the paw causes an acute inflammation.
Experiment [12] concerns Trichophyton rubrum. As to the kind of experiment: Antifungal activity against Trichophyton rubrum assessed as zone of inhibition at 20 mg/ml. In kind it is functional. Conditions: read-out: IZ.
Experiment [13] concerns Serratia marcescens. Description: Antibacterial activity against Serratia marcescens assessed as zone of inhibition at 20 mg/ml. It is filed as functional. The note with it: read-out: IZ.
For experiment [14], the system named is Candida albicans. As to the kind of experiment: Antifungal activity against Candida albicans assessed as zone of inhibition at 20 mg/ml. It is filed as functional. Conditions: read-out: IZ.
Experiment [15] relates to Geotrichum candidum. Description: Antifungal activity against Geotrichum candidum assessed as zone of inhibition at 20 mg/ml. In kind it is functional. Conditions: read-out: IZ.
The subject of experiment [16] is Micrococcus luteus. As to the kind of experiment: Antibacterial activity against Micrococcus luteus assessed as zone of inhibition at 20 mg/ml. It is filed as functional. Conditions: read-out: IZ.
The subject of experiment [17] is Escherichia coli. As to the kind of experiment: Antibacterial activity against Escherichia coli assessed as zone of inhibition at 20 mg/ml. Conditions: read-out: IZ. In kind it is functional.
Experiment [18] deals with Pseudomonas aeruginosa. Description: Antibacterial activity against Pseudomonas aeruginosa assessed as zone of inhibition at 20 mg/ml. It is filed as functional. The note with it: read-out: IZ.
The test system of experiment [19] is Staphylococcus aureus. As to the kind of experiment: Antibacterial activity against Staphylococcus aureus assessed as zone of inhibition at 20 mg/ml. Conditions: read-out: IZ. In kind it is functional.
Experiment [20] has as its system Aspergillus flavus. Description: Antifungal activity against Aspergillus flavus assessed as zone of inhibition at 20 mg/ml. It is filed as functional. Conditions: read-out: IZ.
The test system of experiment [21] is Bacillus cereus. Description: Antibacterial activity against Bacillus cereus assessed as zone of inhibition at 20 mg/ml. In kind it is functional. The note with it: read-out: IZ.
For experiment [22], the system named is Fusarium oxysporum. As to the kind of experiment: Antifungal activity against Fusarium oxysporum assessed as zone of inhibition at 20 mg/ml. In kind it is functional. Conditions: read-out: IZ.
Experiment [23] concerns Scopulariopsis. As to the kind of experiment: Antifungal activity against Scopulariopsis assessed as zone of inhibition at 20 mg/ml. The note with it: read-out: IZ. It is filed as functional.
Experiment [24] deals with Fusarium oxysporum. As to the kind of experiment: Antifungal activity against Fusarium oxysporum assessed as zone of inhibition at 50 uM. The note with it: read-out: IZ. In kind it is functional.
Experiment [25] has as its system Ehrlich. As to the kind of experiment: cells. The note with it: Mus musculus.
Description: Anticancer activity against mouse EAC cells assessed as reduction in cell viability
For experiment [26], the species on record is Rattus norvegicus. Description: Antifibrotic activity in Sprague-Dawley rat model of BDL induced hepatic fibrosis assessed as […] fibrotic potential. It is filed as functional.
The test system of experiment [27] is HeLa. Description: Antiproliferative activity against human HeLa cells assessed as reduction in cell proliferation. It is filed as functional, cell-based.
Experiment [28] deals with Staphylococcus simulans. Description: Antibacterial activity against Staphylococcus simulans assessed as zone of inhibition at 20 mg/ml. It is filed as functional. Conditions: read-out: IZ.
For experiment [29], the system named is Staphylococcus aureus. Description: Antibacterial activity against Staphylococcus aureus by dilution assay. In kind it is functional.
Experiment [30] relates to Candida albicans. As to the kind of experiment: […] activity against Candida albicans assessed as zone of inhibition at 20 mg/ml. The note with it: read-out: IZ. In kind it is functional.
The subject of experiment [31] is HCT-15. As to the kind of experiment: Anticancer activity against human HCT-15 cells assessed as cell growth inhibition. In kind it is functional, cell-based.
In experiment [32] the test system is HCT-116/VM46. Description: cells. Conditions: Homo sapiens.
The test system of experiment [33] is L1210. Description: Cytotoxicity against mouse L1210 cells assessed as reduction in cell viability. In kind it is functional, cell-based.
Experiment [34] concerns L1210. Description: Cytotoxicity against […] cells assessed as reversal of multi drug resistance at 1 uM. In kind it is functional, cell-based. The note with it: Mus musculus.
The test system of experiment [35] is HCT-116. As to the kind of experiment: Cytotoxicity against human HCT-116 cells assessed as reversal of multi drug resistance at 1 uM. In kind it is functional, cell-based.

Converted amounts (≈) assume the structure as drawn. Bounds are passed on as bounds.

Sequence of D(4) dopamine receptor (P21917 whole entry): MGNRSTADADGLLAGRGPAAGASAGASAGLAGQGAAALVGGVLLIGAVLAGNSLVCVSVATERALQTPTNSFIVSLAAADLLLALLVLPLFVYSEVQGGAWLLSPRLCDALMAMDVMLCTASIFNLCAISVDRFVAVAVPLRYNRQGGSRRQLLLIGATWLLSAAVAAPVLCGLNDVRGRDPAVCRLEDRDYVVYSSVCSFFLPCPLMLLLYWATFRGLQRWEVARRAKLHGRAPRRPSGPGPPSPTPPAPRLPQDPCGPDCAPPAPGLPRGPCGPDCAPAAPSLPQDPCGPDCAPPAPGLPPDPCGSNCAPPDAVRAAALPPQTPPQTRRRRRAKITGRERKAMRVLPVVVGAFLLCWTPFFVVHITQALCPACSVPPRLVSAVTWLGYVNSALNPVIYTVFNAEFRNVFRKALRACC

Broadly, the Ki is a measure of affinity in units of concentration, obtained from inhibition or displacement. In the case of `COc1ccc2c3c(c(=O)oc2c1)CN(Cc1ccncc1)CC3`, the Ki in [1] stood at 1.5 nM; in experiment [2], 78 nM.
By IC50 is commonly meant the concentration needed to halve the response being measured. Turning to `Cc1ccc2nc3c(c(-c4ccccc4)c2c1)c(=O)oc1ccccc13`, the IC50 in experiment [3] turned out to be 50 nM.
In the case of `O=C1CCCc2nc3c(c(-c4ccccc4[N+](=O)[O-])c21)c(=O)oc1ccccc13`, the IC50 in [4] was 58.6 µM; in experiment [5], 140 nM; in experiment [6], 29.8 µM; in experiment [7], > 100 µM; in experiment [8], 25.4 µM.
Regarding `Cc1ccc2c(c1)C(c1ccccc1)c1c(c3ccccc3oc1=O)N2` (stereo unspecified), the IC50 in [9] stood at 50 nM.
As for `CCOc1nc(-c2ccco2)cc2c1c(=O)oc1ccccc12`, the Activity was 62% in experiment [10] and 89% in experiment [11].
For the molecule `CCOC(=O)c1sc2c(c1N)c(=O)oc1ccccc12`, the zone of inhibition at 20000 µg/mL in experiment [12] is 0 mm; in experiment [13], 8 mm; in [14] it was 13 mm; in experiment [15], 0 mm; in experiment [16], 8 mm; in experiment [17], 0 mm. Besides, the zone of inhibition at 20000 µg/mL was 10 mm in [18]; 9 mm in experiment [19]; 0 mm in [20]; 0 mm in experiment [21]; 0 mm in experiment [22]; 8 mm in experiment [23]. In addition, the zone of inhibition at 50 µM in experiment [24] worked out at 16 mm.
`CCc1ccccc1-n1c(N)c(C#N)c2c(c(=O)oc3ccc4ccccc4c32)c1=O`: in [25], the IC50 amounted to 246 µM. Moreover, the Activity in experiment [26] was 193.07 µmol/L.
Turning to `O=C(NO)c1cc2c(=O)oc3ccccc3c2s1`, the half-inhibitory concentration (IC50) in [27] was 8.84 µM.
The term MIC denotes the lowest concentration found to suppress growth. As for `Cc1cccc2c1oc(=O)c1cn[nH]c12`, the zone of inhibition at 20000 µg/mL in experiment [28], in [19] and in [30] was 14 mm in each case. This molecule also came in with a minimum inhibitory concentration (MIC) in experiment [29] of 100 µM (≈ 20 µg/mL).
As to `CC(=O)/C=C1\c2c(c3ccccc3oc2=O)OC1(c1ccccc1)N(C)C` (stereo unspecified), the half-inhibitory concentration (IC50) in experiment [31] was determined as 8 µM.
For the molecule `O=c1oc2cc(O)c(O)cc2c2c(-c3ccc(O)c(O)c3)cn(CCc3ccc(O)c(O)c3)c12`, the IC50 in [32] stood at 60 µM; in [33], 10 µM; in experiment [34] it was 10 µM; in experiment [35] it was 12 µM.
